Measured values taken from DBAASP.
Converted amounts (≈) assume the structure as drawn. “And” between values parts separate entries of the source, which are not always exact repeats. Identical values can stand only once. Each block holds one molecule with its values, some of them ahead of it.

Experiments:
Test in all cases: ≥ marks a high value that may be exact or a test limit, other limits are often not marked, values filed in µg/mL are converted to µM
[1] = tested on: Escherichia coli NBRC 14237
[2] = tested on: Micrococcus luteus NBRC 12708
[3] = tested on: Pseudomonas aeruginosa NBRC 12582
[4] = tested on: Staphylococcus aureus NBRC 12732
Bacillus subtilis PS832 = tested on: Bacillus subtilis PS832
Escherichia coli DL7 = tested on: Escherichia coli DL7
[5] = tested on: Klebsiella aerogenes ATCC 13048
[6] = tested on: Staphylococcus epidermidis ATCC 12228
[7] = tested on: Escherichia coli ATCC 25922
[8] = tested on: Klebsiella pneumoniae ATCC 700603
[9] = tested on: Pseudomonas aeruginosa ATCC 27853
[10] = tested on: Staphylococcus aureus ATCC 29213
[11] = tested on: Staphylococcus aureus ATCC 33591
[12] = tested on: Staphylococcus aureus ATCC 700699
[13] = tested on: Acinetobacter baumannii CICC 22934
Bacillus cereus AS1.126 = tested on: Bacillus cereus AS1.126
[14] = tested on: Enterobacter cloacae CGMCC 1.58
[15] = tested on: Enterococcus faecalis CGMCC 1.595
[16] = tested on: Enterococcus faecium CGMCC 1.2334
Escherichia coli AS1.349 = tested on: Escherichia coli AS1.349
[17] = tested on: Klebsiella aerogenes CGMCC 1.876
[18] = tested on: Klebsiella pneumoniae subsp. pneumoniae CGMCC 1.176
[19] = tested on: Lactococcus lactis AS1.1690
[20] = tested on: Proteus mirabilis CICC 22931
[21] = tested on: Pseudomonas aeruginosa CGMCC 1.860
[22] = tested on: Staphylococcus aureus AS1.72
Bacillus cereus = tested on: Bacillus cereus
Bacillus subtilis = tested on: Bacillus subtilis
[23] = tested on: Candida albicans CCM 8186
[24] = tested on: Candida glabrata CCM 8270
Candida krusei CCM 8271 = tested on: Candida krusei CCM 8271
[25] = tested on: Candida parapsilosis CCM 8260
[26] = tested on: Candida tropicalis CCM 8264
[27] = tested on: Erwinia amylovora PMV 6076
[28] = tested on: Escherichia coli PCM 2057
[29] = tested on: Fusobacterium nucleatum ATCC 10953
[30] = tested on: Porphyromonas gingivalis ATCC 33277
[31] = tested on: Pseudomonas aeruginosa PCM 499
[32] = tested on: Pseudomonas syringae pv. actinidiae Psa3700.1.1
[33] = tested on: Pseudomonas syringae pv. syringae EPS 94
[34] = tested on: Staphylococcus aureus PCM 2054
[35] = tested on: Staphylococcus epidermidis PCM 2118
[36] = tested on: Xanthomonas arboricola pv. pruni CFBP 5563
[37] = tested on: Xanthomonas campestris pv. Vesicatoria 2133-2
[38] = tested on: Xanthomonas fragariae Xf349-9A
[39] = tested on: Pseudomonas aeruginosa PA006
[40] = tested on: Pseudomonas aeruginosa PAO1
[41] = tested on: Pseudomonas aeruginosa Pa1-SA2
[42] = tested on: Pseudomonas aeruginosa Pa4-SA2
[43] = tested on: Salmonella enterica subsp. enterica serovar Typhimurium ATCC 14028
[44] = tested on: Staphylococcus aureus ATCC 29313

Compound: CC[C@H](C)[C@H](NC(=O)[C@@H](N)Cc1ccccc1)C(=O)NCC(=O)N[C@@H](C)C(=O)N[C@@H](CC(C)C)C(=O)N[C@@H](CC(C)C)C(=O)NCC(=O)N1CCC[C@H]1C(=O)N[C@@H](CC(C)C)C(=O)N[C@@H](CC(C)C)C(=O)N[C@@H](CC(N)=O)C(=O)N[C@@H](CC(C)C)C(=O)N[C@@H](CC(C)C)C(=O)N[C@@H](CCCCN)C(N)=O [FIGALLGPLLNLLK]
MIC [1]: ≥ 50 µM
MIC [2]: 12.5 µM (≈ 18.5 µg/mL)
MIC [3]: ≥ 50 µM
MIC [4]: 12.5 µM (≈ 18.5 µg/mL)

Compound: CC(C)[C@H](NC(=O)[C@H](Cc1c[nH]c2ccccc12)NC(=O)[C@H](Cc1ccccc1)NC(=O)[C@@H](NC(=O)[C@@H](NC(=O)[C@H](CCCCN)NC(=O)[C@@H](N)CCCCN)C(C)C)C(C)C)C(=O)N[C@@H](CCCCN)C(=O)N[C@@H](Cc1ccccc1)C(=O)N[C@@H](CCCCN)C(N)=O [KKVVFWVKFK]
MIC (Bacillus cereus): ≥ 38.2 µM
MIC (Bacillus subtilis): 5.96 µM (≈ 7.79 µg/mL)
MIC [23]: 5.96 µM (≈ 7.79 µg/mL)
MIC [24]: 11.9 µM (≈ 15.6 µg/mL)
MIC (Candida krusei CCM 8271): 5.96 µM (≈ 7.79 µg/mL)
MIC [25]: 1.53 µM (≈ 2 µg/mL)
MIC [26]: 1.53 µM (≈ 2 µg/mL)
MIC [27]: 8.8 µM (≈ 11.5 µg/mL)
MIC [28]: 5.96 µM (≈ 7.79 µg/mL)
MIC [29]: 11.9 µM (≈ 15.6 µg/mL)
MIC [30]: ≥ 95.5 µM
MIC [31]: 19.1 µM (≈ 25 µg/mL)
MIC [32]: 2.23 µM (≈ 2.91 µg/mL)
MIC [33]: 8.8 µM (≈ 11.5 µg/mL)
MIC [34]: 19.1 µM (≈ 25 µg/mL)
MIC [35]: 5.96 µM (≈ 7.79 µg/mL)
MIC [36]: 1.13 µM (≈ 1.48 µg/mL)
MIC [37]: 8.8 µM (≈ 11.5 µg/mL)
MIC [38]: 4.38 µM (≈ 5.73 µg/mL)

Compound: CC[C@H](C)[C@H](NC(=O)[C@H](C)NC(=O)[C@H](Cc1cnc[nH]1)NC(=O)[C@H](C)NC(=O)[C@@H](NC(=O)[C@H](CC(C)C)NC(=O)[C@H](CC(=O)O)NC(=O)[C@H](CCCCN)NC(=O)CNC(=O)[C@H](C)NC(=O)CNC(=O)[C@H](CCCCN)NC(=O)[C@@H](NC(=O)[C@@H](NC(=O)[C@H](CC(=O)O)NC(=O)[C@@H](NC(=O)[C@@H](NC(=O)CN)C(C)C)[C@@H](C)CC)[C@@H](C)CC)[C@@H](C)CC)[C@@H](C)CC)C(=O)NCC(=O)N[C@@H](CCCCN)C(=O)N[C@@H](CC(C)C)C(=O)N[C@@H](C)C(=O)N[C@@H](CCC(=O)O)C(=O)N[C@@H](CCCCN)C(=O)N[C@H](C(N)=O)C(C)C [GVIDIIKGAGKDLIAHAIGKLAEKV]
MIC [7]: 316 µM (≈ 800 µg/mL)
MIC [8]: > 316 µM
MIC [9]: > 202 µM
MIC [39]: 6.32 µM (≈ 16 µg/mL)
MIC [40]: 202 µM (≈ 512 µg/mL)
MIC [41]: ≥ 50.6 µM
MIC [42]: 25.3 µM (≈ 64 µg/mL)
MIC [43]: > 316 µM
MIC [44]: ≥ 316 µM

The next lines start with the values.

MIC (Bacillus subtilis PS832): 0.125 µM and 0.06 µM
MIC (Escherichia coli DL7): 0.125 µM and 0.06 µM
MIC [5]: ≥ 32 µM
MIC [6]: 1 µM (≈ 1.77 µg/mL)
Compound: CC(C)C[C@H](NC(=O)[C@H](CCCCN)NC(=O)[C@H](C)NC(=O)[C@H](CC(C)C)NC(=O)[C@H](CCCCN)NC(=O)[C@H](CCCCN)NC(=O)[C@H](C)NC(=O)[C@H](CC(C)C)NC(=O)[C@H](CCCCN)NC(=O)[C@H](C)NC(=O)[C@H](CC(C)C)NC(=O)[C@H](CCCCN)NC(=O)[C@H](Cc1cnc[nH]1)NC(=O)CNC(=O)CN)C(=O)N[C@@H](C)C(=O)N[C@@H](CCCCN)C(N)=O [GGHKLAKLAKKLAKLAK]

MIC [7]: 100 µM (≈ 249 µg/mL)
MIC [8]: > 100 µM
MIC [9]: > 100 µM
MIC [10]: > 100 µM
MIC [11]: ≥ 100 µM
MIC [12]: ≥ 100 µM
Compound: CC[C@H](C)[C@H](NC(=O)[C@H](CC(=O)O)NC(=O)[C@H](CCCCN)NC(=O)[C@H](C)NC(=O)[C@H](C)NC(=O)CNC(=O)[C@H](CCCCN)NC(=O)[C@H](CC(C)C)NC(=O)[C@@H](NC(=O)[C@H](CC(=O)O)NC(=O)[C@@H](NC(=O)[C@@H](NC(=O)CN)C(C)C)C(C)C)[C@@H](C)CC)C(=O)N[C@@H](C)C(=O)NCC(=O)N[C@@H](Cc1cnc[nH]1)C(=O)N[C@@H](CC(C)C)C(=O)N[C@@H](C)C(=O)N[C@@H](CO)C(=O)N[C@@H](CCCCN)C(=O)N[C@H](C(=O)N[C@@H](CCSC)C(=O)N[C@@H](CC(N)=O)C(=O)N[C@@H](C)C(=O)N[C@@H](CC(C)C)C(N)=O)C(C)C [GVVDILKGAAKDIAGHLASKVMNAL]

MIC [13]: ≥ 100 µM
MIC (Bacillus cereus AS1.126): 1.56 µM (≈ 3.63 µg/mL)
MIC [14]: ≥ 100 µM
MIC [15]: 3.13 µM (≈ 7.27 µg/mL)
MIC [16]: 3.13 µM (≈ 7.27 µg/mL)
MIC (Escherichia coli AS1.349): ≥ 100 µM
MIC [17]: ≥ 100 µM
MIC [18]: ≥ 100 µM
MIC [19]: 3.13 µM (≈ 7.27 µg/mL)
MIC [20]: ≥ 100 µM
MIC [21]: ≥ 100 µM
MIC [22]: 2.34 µM (≈ 5.44 µg/mL)
Compound: CC(C)C[C@H](NC(=O)[C@H](CCCCN)NC(=O)[C@H](CCCN=C(N)N)NC(=O)[C@H](Cc1cnc[nH]1)NC(=O)[C@H](C)NC(=O)[C@H](CCCN=C(N)N)NC(=O)[C@H](Cc1cnc[nH]1)NC(=O)[C@H](CC(C)C)NC(=O)[C@H](Cc1ccccc1)NC(=O)[C@H](CCCN=C(N)N)NC(=O)[C@H](CCCN=C(N)N)NC(=O)[C@H](CC(C)C)NC(=O)[C@H](Cc1cnc[nH]1)NC(=O)[C@H](CCCN=C(N)N)NC(=O)[C@H](CC(C)C)NC(=O)[C@@H](NC(=O)[C@H](CCCCN)NC(=O)[C@@H](N)CO)C(C)C)C(=O)O [SKVLRHLRRFLHRAHRKL]
